Results published in paper PMC7696666, “Epithelial Transfer of the Tyrosine Kinase Inhibitors Erlotinib, Gefitinib, Afatinib, Crizotinib, Sorafenib, Sunitinib, and Dasatinib: Implications for Clinical Resistance” (Cancers, 2020).
“And” between values parts separate entries of the source, which are not always exact repeats. Identical values can stand only once. “Also recorded” adds a separate entry of the source. Like-named read-outs stand apart in the source and are kept apart here.

What was measured:
[1] = CaCo2 Transwell transport (Papp, efflux ratio); assay type: in vitro ADME, human; settings: human; for efflux ratio at 180 min, 10 µM: read-out: Efflux Ratio (Papp B–A / Papp A–B); for Papp A→B at 180 min, 10 µM: read-out: Papp (Apical Basolateral); for Papp B→A at 180 min, 10 µM: read-out: Papp (Basolateral Apical)
Procedure: (§1) The Transwell system was developed using the wild type Caco-2 cell line (passage 15–25) cultured in Dulbecco’s […] medium (DMEM) at standard conditions of 37 °C, 5% CO2, and 100% humidity as previously reported. […] To ensure a controlled growth environment the plate was covered with Breathe-Easier cell culture foil during the incubation period. The integrity of the developed monolayer was assessed by TEER before administration of compound solutions and after the final sampling stage.
(§2) The initial concentration of the drug was verified from a 20 µL sample taken immediately from the donor compartment after drug administration (t = 0).
(§3) The permeability coefficient (Papp) represents a measure for the efficiency of transport and was calculated with the following equation: Papp=ΔQ/Δt×V/C0⋅A where ∆Q/∆t = the rate of increase in drug concentration (accumulative mass transport) in the receiver compartment over time (µM/s), V = volume in the receiver compartment (mL), C0 = the initial concentration of drug in the donor compartment (µM), and A = the membrane surface area (cm^2).
(§4) To take into account the slightly nonlinear transfer characteristics of each compound, the rate of increase in drug concentration was determined for each time period and the Papp was then calculated. The average Papp was then determined with units of cm/s × 10^−6 or µm/s.
(§5) The efflux ratio was calculated according to the equation: Efflux ratio=PappB→A/PappA→B.
(§6) Statistical significance was determined using a simple Student’s t-test where a p value of <0.05 was considered significant.

CaCo2 monolayer [2] = experiment: CaCo2 Transwell transport (Papp, efflux ratio); assay type: in vitro ADME, human
Procedure: as §1, §2, §3, §4, §5, §6

CaCo2 cells [3] = experiment: Intracellular accumulation in CaCo2 Transwell cells at the end of the transport period; assay type: in vitro ADME, human; settings: for Intracellular accumulation at the end of the transfer period (A->B): A->B incubation
Procedure: (§7) In order to get insight in the barrier role of the CaCo2 model system, we determined the intracellular accumulation of the TKISs at the end of the transport period, in normal monolayers of CaCo2 cells and in several other colon cancer cell lines. At the end of the transport period (both from the B->A and A->B incubations), cells were harvested and intracellular accumulation was determined.
(§8) These cells were exposed to 20 μM of a TKI and were harvested after 2 h for determination of TKI concentration with LC-MS-MS. Values are means ± SEM for the number of experiments described in Figure 3, Figure 4, and Figure 5 and from three separate experiments for the monolayer CaCo2 and WiDr cells. […] A->B, mass transport from A to B; B->A, mass transport from B to A. For AFA, CRI, and DAS, no data in WiDr cells were available. […] The bar heights were not read.
(§9) In a different set of experiments, the CaCo2 cells were cultured in 6-wells plates as monolayers until semiconfluency. Two other colon cancer cell lines, WiDr and HT29, were cultured similarly. These cells were exposed for 2 h to various TKIs at concentrations varying from 50 nM to 20 µM). […] At the end of the incubation, cells were harvested, as described earlier, and extracted for drug analysis using LC-MS-MS as described above.

[4] = design: method as in PMID 30544701; settings: method not given, ref [45], cited from earlier work
[5] = Disposition in blood compartments (whole blood, plasma, serum) of patients; assay type: in vivo, human
Procedure: Each individual sample was divided into two components; a 1 mL of tube of whole blood and 0.5 of plasma, each sample was stored at −20 °C until analysis could be performed. An additional serum sample was also obtained for patients treated with erlotinib. Blood samples for afatinib were obtained from NSCLC patients after 4 days receiving the standard daily dose of 40 mg.
Blood samples were taken at 1, 2, and 30 days after the start of treatment. Samples were separated from the whole blood into plasma, serum, and a packed red blood cell pellet (using the MESED apparatus). In a dose escalation study in order to determine whether a high pulsatile dose of sorafenib could be given to patients, we analyzed red blood cells and whole blood in 12 patients treated with sorafenib at total doses ranging from 2000 to 2800 mg daily. From these patients, samples were collected in 3 cycles.
For sunitinib, initially pharmacokinetic samples were collected over the first 24 h period from a single patient, with a renal cell carcinoma receiving a nonstandard treatment schedule (700 mg biweekly), in comparison to the standard 50 mg daily dose. Whole blood samples were divided into plasma, serum, and a packed red blood cell pellet. This cohort could later be extended with 6 patients treated with 800 mg sunitinib every 2 weeks enrolled in a clinical study to determine the tolerability of pulsatile sunitinib.
Five blood samples were taken over a 5-month period and divided into whole blood, an extracted 100 µL of red blood cells, and a plasma sample.

CaCo2 cells [6] = experiment: Intracellular accumulation in CaCo2 cells grown as normal monolayers; assay type: in vitro ADME, human; settings: 20 μM, 2 h
Procedure: as §8, §9

WiDr cells = experiment: Intracellular accumulation in WiDr colon cancer cells (monolayer); assay type: in vitro ADME; settings: 20 μM, 2 h
Procedure: as §8, §9

HT29 cells = experiment: Intracellular accumulation in HT29 colon cancer cells; assay type: in vitro ADME; settings: after 24 h
Procedure: as §7
In a different set of experiments, the CaCo2 cells were cultured in 6-wells plates as monolayers until semiconfluency. Two other colon cancer cell lines, WiDr and HT29, were cultured similarly. […]

CaCo2 monolayer [7] = settings: 20 µM, previously reported, ref [39], cited from earlier work
[8] = Caco-2, with sorafenib (co-incubated, concentration not stated), 10 µM, with sorafenib

CN(C)C/C=C/C(=O)Nc1cc2c(Nc3ccc(F)c(Cl)c3)ncnc2cc1O[C@H]1CCOC1 [Afatinib, afatinib]
efflux ratio at 180 min, 10 µM ([1]; Caco-2, 10 µM): > 5 | Papp A→B at 180 min, 10 µM ([1]; Caco-2, 10 µM): 1.5 ± 2.2 ×10⁻⁶ cm/s | Papp B→A at 180 min, 10 µM ([1]; Caco-2, 10 µM): 10.9 ± 5 ×10⁻⁶ cm/s | Efflux Ratio (Papp B–A / Papp A–B) (CaCo2 monolayer [2]; 10 µM): 7.3 | Papp apical to basolateral (CaCo2 monolayer [2]; 10 µM, A–B): 1.48 ×10⁻⁶ cm/s | Total amount transferred apical to basolateral in 3 h (CaCo2 monolayer [2]; 10 µM, A–B): 90 pmol | Papp apical to basolateral (CaCo2 monolayer [2]; 10 µM, A–B, listed as afatinib): 1.5 ×10⁻⁶ cm/s | Papp basolateral to apical (CaCo2 monolayer [2]; 10 µM, B–A): 10.9 ×10⁻⁶ cm/s | Efflux Ratio (Papp B–A / Papp A–B) (CaCo2 monolayer [2]; 10 µM, listed as afatinib): 7.34 and > 6 | Intracellular accumulation at the end of the transfer period (A->B) (CaCo2 cells [3]): 0.45 pmol/μg protein | Log P [4]: 3.59 | Log D (pH 5.5) [4]: 1.00 | Log D (pH 7.5) [4]: 2.87

C[C@@H](Oc1cc(-c2cnn(C3CCNCC3)c2)cnc1N)c1c(Cl)ccc(F)c1Cl [Crizotinib, crizotinib]
efflux ratio at 180 min, 10 µM ([1]; Caco-2, 10 µM): > 5 | Papp B→A at 180 min, 10 µM ([1]; Caco-2, 10 µM): 7.7 ± 5.5 ×10⁻⁶ cm/s | Papp (Apical Basolateral) (CaCo2 monolayer [2]; 10 µM, A–B): Unmeasurable | Total amount transferred apical to basolateral in 3 h (CaCo2 monolayer [2]; 10 µM, A–B): nothing could be detected | Effect of exposure on CaCo2 cells and membrane (CaCo2 monolayer [2]; 20 µM exposure): caused cell death and disruption of the membrane | A–B mass transport at 20 µM, fold lower than B–A mass transport at 10 µM (CaCo2 monolayer [2]; A–B 20 µM vs B–A 10 µM): 20 fold | Intracellular accumulation at the end of the transfer period (A->B) (CaCo2 cells [3]): 2.11 pmol/μg protein | Whole blood concentration higher than plasma ([5]; standard dose (250 mg twice daily), single patient): 30% | Log P [4]: 4.73 | Log D (pH 5.5) [4]: 0.30 | Log D (pH 7.5) [4]: 1.80

C#Cc1cccc(Nc2ncnc3cc(OCCOC)c(OCCOC)cc23)c1 [Erlotinib, erlotinib]
efflux ratio at 180 min, 10 µM ([1]; Caco-2, 10 µM): 1.6 | efflux ratio at 180 min, 10 µM [1, 8]: 1.4 | Papp A→B at 180 min, 10 µM [1, 8]: 0.35 ± 0.17 ×10⁻⁶ cm/s | Papp B→A at 180 min, 10 µM [1, 8]: 0.48 ± 0.3 ×10⁻⁶ cm/s | Papp A→B at 180 min, 10 µM ([1]; Caco-2, 10 µM): 0.48 ± 0.26 ×10⁻⁶ cm/s | Papp B→A at 180 min, 10 µM ([1]; Caco-2, 10 µM): 0.79 ± 0.65 ×10⁻⁶ cm/s | Papp apical to basolateral (CaCo2 monolayer [2]; 10 µM, A–B): 0.48 µm/s | Intracellular accumulation at the end of the transfer period (A->B) (CaCo2 cells [3]): not detectable; also recorded: no erlotinib was detectable | Intracellular accumulation at the end of the transfer period (B->A) (CaCo2 cells [3]; B->A incubation): no erlotinib was detectable | Intracellular accumulation in CaCo2 monolayer (CaCo2 cells [6]): just detectable | Intracellular accumulation in WiDr cells (WiDr cells): no erlotinib | Intracellular accumulation in HT29 cells (HT29 cells): 0.035 pmol/μg protein | blood plasma ratio ([5]; human, whole blood and plasma, oral, clinical samples, read-out: Blood to plasma ratio): > 30 | Fold higher in whole blood compared to plasma ([5]; standard dosing regimen, clinical samples): 100 fold | Papp (Apical Basolateral) (CaCo2 monolayer [7]; A–B): 0.13 ± 0.001 ×10^−6 cm/s | Papp (Basolateral Apical) (CaCo2 monolayer [7]; B–A): 0.70 ± 0.30 ×10^−6 cm/s | Efflux Ratio (Papp B–A / Papp A–B) (CaCo2 monolayer [7]): 5.4 | Efflux Ratio (Papp B–A / Papp A–B) (CaCo2 monolayer [7]; listed as erlotinib): > 5 | Log P [4]: 2.39 | Log D (pH 5.5) [4]: 2.74 | Log D (pH 7.5) [4]: 3.04
